Reference: patent publication US8802597B2, “Herbicidal pyrimidines” (E I du Pont de Nemours and Company, priority 2003, dated 2014)
Like-named read-outs stand apart in the source and are kept apart here.

What was measured:
Type in all cases: in vivo
[1] = system: velvetleaf (Abutilon theophrasti); test: Test B pre/postemergence; conditions: Abutilon theophrasti; for pest or weed control at 62 g/ha: 62 g ai/ha; for pest or weed control at 250 g/ha: 250 g ai/ha
Outline: (§1)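 Visual injury scored 0 (no effect) to 100 (complete control) versus untreated controls after 13 to 15 days in greenhouse. Treatments were pre- or postemergence sprays of surfactant-containing solvent formulations; postemergence plants at 1- to 4-leaf stage, 2 to 18 cm.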

[2] = system: giant foxtail (Setaria faberii); test: Test B pre/postemergence; conditions: Setaria faberi; for pest or weed control at 62 g/ha: 62 g ai/ha; for pest or weed control at 250 g/ha: 250 g ai/ha
Outline: as §1

corn (Zea mays) = test: Test B pre/postemergence; conditions: Zea mays; for Corn plant response rating (crop injury, 0 = no effect, 100 = complete kill) at 250 g/ha: 250 g ai/ha
Outline: as §1

[3] = system: cocklebur (Xanthium strumarium); test: Test B pre/postemergence; conditions: Xanthium strumarium; for pest or weed control at 62 g/ha: 62 g ai/ha; for pest or weed control at 250 g/ha: 250 g ai/ha
Outline: as §1

[4] = system: morningglory (Ipomoea coccinea); test: Test B pre/postemergence; conditions: Ipomoea; for pest or weed control at 62 g/ha: 62 g ai/ha; for pest or weed control at 250 g/ha: 250 g ai/ha
Outline: as §1

[5] = system: Surinam grass (Brachiaria decumbens); test: Test B pre/postemergence; conditions: Urochloa decumbens; for pest or weed control at 62 g/ha: 62 g ai/ha; for pest or weed control at 250 g/ha: 250 g ai/ha
Outline: as §1

[6] = system: barnyardgrass (Echinochloa crus-galli); test: Test B pre/postemergence; conditions: Echinochloa crus-galli; for pest or weed control at 62 g/ha: 62 g ai/ha; for pest or weed control at 250 g/ha: 250 g ai/ha
Outline: as §1

[7] = system: crabgrass (Digitaria sanguinalis); test: Test B pre/postemergence; conditions: Digitaria sanguinalis; for pest or weed control at 62 g/ha: 62 g ai/ha; for pest or weed control at 250 g/ha: 250 g ai/ha
Outline: as §1

[8] = system: lambsquarters (Chenopodium album); test: Test B pre/postemergence; conditions: Chenopodium album; for pest or weed control at 62 g/ha: 62 g ai/ha; for pest or weed control at 250 g/ha: 250 g ai/ha
Outline: as §1

[9] = system: pigweed (Amaranthus retroflexus); test: Test B pre/postemergence; conditions: Amaranthus retroflexus; for pest or weed control at 62 g/ha: 62 g ai/ha; for pest or weed control at 250 g/ha: 250 g ai/ha
Outline: as §1

[10] = system: wheat (Triticum aestivum); test: Test B pre/postemergence; conditions: Triticum aestivum; for plant injury at 62 g/ha: 62 g ai/ha; for plant injury at 250 g/ha: 250 g ai/ha
Outline: as §1

[11] = system: duck salad (Heteranthera limosa); test: Test B flooded paddy test; conditions: Heteranthera limosa, Flood, 1000 g ai/ha; scale 0 to 100; read-out: Plant response rating, Ducksalad
Outline: (§2)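 Plants were grown to the 2-leaf stage before treatment, then kept in a greenhouse for 13 to 15 days. Injury was rated visually against untreated controls on a 0 to 100 scale, where 0 is no effect and 100 is complete control.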

[12] = system: umbrella sedge (Cyperus difformis); test: Test B flooded paddy test; conditions: Cyperus difformis, Flood, 1000 g ai/ha; scale 0 to 100; read-out: Plant response rating, Sedge, Umbrella
Outline: as §2

rice (Oryza sativa) = test: Test B flooded paddy test; conditions: Oryza sativa, Flood, 1000 g ai/ha; scale 0 to 100; read-out: Plant response rating, Rice
Outline: as §2

[13] = system: barnyardgrass (Echinochloa crus-galli); test: Test B flooded paddy test; conditions: Echinochloa crus-galli, Flood, 1000 g ai/ha; scale 0 (no effect) to 100 (complete control); read-out: Plant response rating, Barnyardgrass
Outline: as §2

wild oat (Avena fatua) = test: Test B postemergence; conditions: Avena fatua, post-emergence
Outline: as §1

[14] = system: blackgrass (Alopecurus myosuroides); test: Test B postemergence; conditions: Alopecurus myosuroides, post-emergence
Outline: as §1

[15] = pre-emergence, Preemergence, scale 0 to 100 (0 no effect, 100 complete control), read-out: Plant response rating, Barnyardgrass
[16] = pre-emergence, Preemergence, scale 0 to 100 (0 no effect, 100 complete control), read-out: Plant response rating, Wheat

Question: Which results are given for `CCOC(=O)c1nc(C2CC2)nc(N)c1Br` [Compound 1, ethyl 6-amino-5-bromo-2-cyclopropyl-4-pyrimidinecarboxylate]?
Answer: pest or weed control at 62 g/ha ([1]; post-emergence, Postemergence, scale 0 to 100 (0 no effect, 100 complete control), read-out: Velvetleaf plant response rating): 90%; pest or weed control at 250 g/ha ([1]; post-emergence, Postemergence, scale 0 to 100, read-out: Plant response rating, Velvetleaf): 90%; pest or weed control at 62 g/ha ([1]; pre-emergence, Preemergence, scale 0 to 100, 0 no effect, 100 complete control, read-out: Plant response rating, Velvetleaf): 90%; pest or weed control at 250 g/ha ([1]; pre-emergence, Preemergence, scale 0 to 100 (0 no effect, 100 complete control), read-out: Plant response rating, Velvetleaf): 100%; pest or weed control at 62 g/ha ([2]; post-emergence, Postemergence, scale 0 to 100 (0 no effect, 100 complete control), read-out: Foxtail, Giant plant response rating): 50%; pest or weed control at 250 g/ha ([2]; post-emergence, Postemergence, scale 0 to 100, read-out: Plant response rating, Foxtail, Giant): 80%; pest or weed control at 250 g/ha ([2]; pre-emergence, Preemergence, scale 0 to 100 (0 no effect, 100 complete control), read-out: Plant response rating, Foxtail, Giant): 90%; pest or weed control at 62 g/ha ([2]; pre-emergence, Preemergence, scale 0 to 100, 0 no effect, 100 complete control, read-out: Plant response rating, Foxtail, Giant): 30%; plant injury at 62 g/ha (corn (Zea mays); post-emergence, Postemergence, 62 g ai/ha, scale 0 to 100 (0 no effect, 100 complete control), read-out: Corn plant response rating): 30%; Corn plant response rating (crop injury, 0 = no effect, 100 = complete kill) at 250 g/ha (corn (Zea mays); post-emergence, Postemergence, scale 0 to 100): 70%; Corn plant response rating (crop injury, 0 = no effect, 100 = complete kill) at 62 g/ha (corn (Zea mays); pre-emergence, Preemergence, 62 g ai/ha, scale 0 to 100, 0 no effect, 100 complete control): 20%; Corn plant response rating (crop injury, 0 = no effect, 100 = complete kill) at 250 g/ha (corn (Zea mays); pre-emergence, Preemergence, scale 0 to 100 (0 no effect, 100 complete control)): 80%; pest or weed control at 62 g/ha ([3]; post-emergence, Postemergence, scale 0 to 100 (0 no effect, 100 complete control), read-out: Cocklebur plant response rating): 90%; pest or weed control at 250 g/ha ([3]; post-emergence, Postemergence, scale 0 to 100, read-out: Plant response rating, Cocklebur): 90%; pest or weed control at 62 g/ha ([3]; pre-emergence, Preemergence, scale 0 to 100, 0 no effect, 100 complete control, read-out: Plant response rating, Cocklebur): 90%; pest or weed control at 250 g/ha ([3]; pre-emergence, Preemergence, scale 0 to 100 (0 no effect, 100 complete control), read-out: Plant response rating, Cocklebur): 100%; pest or weed control at 62 g/ha ([4]; post-emergence, Postemergence, scale 0 to 100 (0 no effect, 100 complete control), read-out: Morningglory plant response rating): 90%; pest or weed control at 250 g/ha ([4]; post-emergence, Postemergence, scale 0 to 100, read-out: Plant response rating, Morningglory): 100%; pest or weed control at 62 g/ha ([4]; pre-emergence, Preemergence, scale 0 to 100, 0 no effect, 100 complete control, read-out: Plant response rating, Morningglory): 90%; pest or weed control at 250 g/ha ([4]; pre-emergence, Preemergence, scale 0 to 100 (0 no effect, 100 complete control), read-out: Plant response rating, Morningglory): 100%; pest or weed control at 62 g/ha ([5]; post-emergence, Postemergence, scale 0 to 100 (0 no effect, 100 complete control), read-out: Surinam Grass plant response rating): 60%; pest or weed control at 250 g/ha ([5]; post-emergence, Postemergence, scale 0 to 100, read-out: Plant response rating, Surinam Grass): 90%; pest or weed control at 250 g/ha ([5]; pre-emergence, Preemergence, scale 0 to 100 (0 no effect, 100 complete control), read-out: Plant response rating, Surinam Grass): 80%; pest or weed control at 62 g/ha ([5]; pre-emergence, Preemergence, scale 0 to 100, 0 no effect, 100 complete control, read-out: Plant response rating, Surinam Grass): 50%; pest or weed control at 62 g/ha ([6]; post-emergence, Postemergence, scale 0 to 100 (0 no effect, 100 complete control), read-out: Barnyardgrass plant response rating): 50%; pest or weed control at 250 g/ha ([6]; post-emergence, Postemergence, scale 0 to 100, read-out: Plant response rating, Barnyardgrass): 90%; pest or weed control at 62 g/ha [6, 15]: 60%; pest or weed control at 250 g/ha [6, 15]: 90%; pest or weed control at 62 g/ha ([7]; post-emergence, Postemergence, scale 0 to 100 (0 no effect, 100 complete control), read-out: Crabgrass plant response rating): 70%; pest or weed control at 250 g/ha ([7]; post-emergence, Postemergence, scale 0 to 100, read-out: Plant response rating, Crabgrass): 90%; pest or weed control at 62 g/ha ([7]; pre-emergence, Preemergence, scale 0 to 100, 0 no effect, 100 complete control, read-out: Plant response rating, Crabgrass): 90%; pest or weed control at 250 g/ha ([7]; pre-emergence, Preemergence, scale 0 to 100 (0 no effect, 100 complete control), read-out: Plant response rating, Crabgrass): 90%; pest or weed control at 62 g/ha ([8]; post-emergence, Postemergence, scale 0 to 100 (0 no effect, 100 complete control), read-out: Lambsquarters plant response rating): 100%; pest or weed control at 250 g/ha ([8]; post-emergence, Postemergence, scale 0 to 100, read-out: Plant response rating, Lambsquarters): 100%; pest or weed control at 62 g/ha ([8]; pre-emergence, Preemergence, scale 0 to 100, 0 no effect, 100 complete control, read-out: Plant response rating, Lambsquarters): 100%; pest or weed control at 250 g/ha ([8]; pre-emergence, Preemergence, scale 0 to 100 (0 no effect, 100 complete control), read-out: Plant response rating, Lambsquarters): 100%; pest or weed control at 62 g/ha ([9]; post-emergence, Postemergence, scale 0 to 100 (0 no effect, 100 complete control), read-out: Pigweed plant response rating): 90%; pest or weed control at 250 g/ha ([9]; post-emergence, Postemergence, scale 0 to 100, read-out: Plant response rating, Pigweed): 100%; pest or weed control at 62 g/ha ([9]; pre-emergence, Preemergence, scale 0 to 100, 0 no effect, 100 complete control, read-out: Plant response rating, Pigweed): 90%; pest or weed control at 250 g/ha ([9]; pre-emergence, Preemergence, scale 0 to 100 (0 no effect, 100 complete control), read-out: Plant response rating, Pigweed): 100%; plant injury at 62 g/ha ([10]; post-emergence, Postemergence, scale 0 to 100 (0 no effect, 100 complete control), read-out: Wheat plant response rating): 30%; plant injury at 250 g/ha ([10]; post-emergence, Postemergence, scale 0 to 100, read-out: Plant response rating, Wheat): 70%; plant injury at 62 g/ha [10, 16]: 30%; plant injury at 250 g/ha [10, 16]: 60%; pest or weed control at 1000 g/ha [11]: 80%; pest or weed control at 1000 g/ha [12]: 20%; plant injury at 1000 g/ha (rice (Oryza sativa)): 70%; pest or weed control at 1000 g/ha [13]: 80%; pest or weed control at 62 g/ha (wild oat (Avena fatua); 62 g ai/ha, scale 0 to 100 (0 no effect, 100 complete control), read-out: Oat, Wild plant response rating): 20%; pest or weed control at 250 g/ha (wild oat (Avena fatua); 250 g ai/ha, scale 0 to 100, read-out: Plant response rating, Oat, Wild): 60%; pest or weed control at 62 g/ha ([14]; 62 g ai/ha, scale 0 to 100 (0 no effect, 100 complete control), read-out: Blackgrass plant response rating): 40%; pest or weed control at 250 g/ha ([14]; 250 g ai/ha, scale 0 to 100, read-out: Plant response rating, Blackgrass): 70%
